Assay results published in patent publication US12459951B2, “Compounds that interact with RAS superfamily proteins for treatment of cancers, inflammatory diseases, rasopathies, and fibrotic disease” (SHY Therapeutics, LLC, priority 2022, dated 2025).
Each block holds one compound with its values, some of them ahead of it.

Key:
[1] = test system: MAPK p38 phosphorylation; assay: MAPK p38 Activation Assay (western blot), Panc-1; format: cell-based, human; settings: at 10 μM, Panc-1 pancreatic cancer cell line; starred symbols = activation
Protocol: Protocol for MAPK p38 Activation Assay
This assay is referred to as the “MAPK p38 Activation Assay” throughout this application.
Cell lines: Human tumor-derived pancreatic cancer cell line Panc-1 (expressing KRas G12D mutant) was purchased from American Type Culture Collection and grown in complete DMEM-High Glucose medium, supplemented with penicillin (100 U/mL), streptomycin (100 μg/mL), and 10% heat-inactivated FBS at 37° C. in a humidified incubator with 5% CO2.
Method 1: Cells were plated at 350000 cells/well density in a 12-well plate, allowed 3 hours to adhere to the plate, then starved in the appropriate medium in the presence of 0.5% FBS overnight. The small molecules to be tested were added to the cells in the final concentration of 10 μM in the presence of 0.3% DMSO for 6 hours incubation at 37° C. For IC50 value determination, serial dilutions of compounds were added to cells under the same conditions. Next, cells were stimulated with 1.5 ng/ml EGF for 15 minutes then cells were lysed with lysis buffer containing 1% Triton X-100, EDTA, and Halt™ Protease & Phosphatase Inhibitor Cocktail (Thermo Scientific). Protein concentration was assessed by BCA protein assay (Thermo Scientific). Phosphorylation level of MAPK p38 was determined by western blot.
Method 2: Cells were plated at 350000 cells/well density in a 12-well plate in 10% FBS. The next day small molecules to be tested were added to the cells in the final concentration of 10 μM in the presence of 0.3% DMSO for 6 hours incubation at 37° C. For IC50 value determination, serial dilutions of compounds were added to cells under the same conditions. Next, cells were lysed with lysis buffer containing 1% Triton X-100, EDTA, and Halt™ Protease & Phosphatase Inhibitor Cocktail (Thermo Scientific). Protein concentration was assessed by BCA protein assay (Thermo Scientific). Phosphorylation level of MAPK p38 was determined by western blot.
Western blot protocol: Equal amounts of protein (15-50 μg) were separated by SDS-PAGE and transferred to nitrocellulose membranes (Invitrogen by Thermo Fisher Scientific). The membrane was stained with Ponceau S Stain (Boston BioProducts) to verify uniform protein loading. Membranes were blocked with 10% milk and phosphorylation levels of MAPK p38 were assessed by incubating overnight at 4° C. with the following antibody: Phospho-p38 MAPK (Thr180/Tyr182), from Cell Signaling Technology. Then the membranes were incubated with HRP-conjugated secondary antibody (Jackson Immunoresearch, West Grove, PA). Bands were incubated in Amersham ECL Prime Western Blotting Detection Reagent (GE Healthcare) and visualized using the ChemiDoc MP imaging system (Bio-Rad).

[2] = test system: BT-20 (expressing wild type KRas); assay: Proliferation Assay (Cell Viability Assay); format: cell-based; settings: Homo sapiens; BT-20, Breast (TNBC), KRas WT
Protocol: (§1) Cell lines: these Human tumor-derived cell lines were purchased from American Type Culture Collection. Human tumor-derived pancreatic cancer cell line MiaPaca-2 (expressing KRAS G12C mutant) and Panc-1 (expressing KRas G12D mutant), and Human non-small cell lung cancer (NSCLC) cell line A549 (expressing KRas G12S mutant), and Human melanoma cell line A375 (wild type Kras) were grown in complete DMEM-High Glucose medium. Human tumor-derived pancreatic cancer cell lines SU86.86 (expressing KRas G12D mutant), BxPC3 (expressing wild type K-Ras), and Human non-small cell lung cancer (NSCLC) cell lines NCI-H441 (expressing KRas G12S mutant), NCI-H1975 (expressing wild type KRas), NCI-H358 (expressing KRas G12C mutant), NCI-H1299 (expressing NRas Q61H mutant), and Human colon cancer cell line SW-620 (expressing KRas G12V mutant), Human triple negative breast cancer cell line HCC-1806 (expressing wild type KRas), and Human tumor-derived multiple myeloma cell line MM.1R (expressing wild type KRAS), were grown in RPMI 1640 medium. Human tumor-derived breast cancer cell line BT-549 (expressing wild type KRAS) was grown in RPMI 1640 medium in the presence of 11.8U insulin. Human tumor-derived pancreatic cancer cell line HPAF-II (expressing KRas G12D mutant), Human triple negative breast cancer cell line BT-20 (expressing wild type KRas), and Human colon cancer cell line LS123 (expressing KRas G12S mutant), were grown in EMEM medium. Human tumor-derived pancreatic cancer cell line CF-PAC1 (expressing KRas G12V mutant) was frown in IMDM medium, and Human colon cancer cell line HT29 (expressing wild type KRas) was grown in McCoy's 5A medium. The colon cancer cell line GP2d (expressing KRas G12D mutant) was purchased from MilliporeSigma and grown in DMEM-High Glucose medium. All cell lines were supplemented with penicillin (100 U/mL), streptomycin (100 μg/mL), and 10% heat-inactivated FBS at 37° C. in a humidified incubator with 5% CO2.
(§2) Method: Cells were plated at 2000 to 5000 cells/well density in 96-wells plate and cultured overnight. Small molecules that were tested were added to the cells in the final concentration of 10 μM in the presence of 0.3% DMSO and 10% FBS, and incubated for 2-4 days at 37° C. in a humidified incubator with 5% CO2. For IC50 value determination, serial dilutions of compounds were added to cells under the same conditions.
(§3) Assay: At the end of the incubation period, cell viability was determined using the CellTiter 96® Aqueous One Solution Cell Proliferation Assay according to manufacturer specifications (Promega, Madison, WI). The percentage of small molecules inhibition of cellular proliferation was calculated from raw data.

[3] = test system: HCC-1806 (expressing wild type KRas); assay: Proliferation Assay (Cell Viability Assay); format: cell-based; settings: Homo sapiens, HCC1806; HCC-1806, Breast (TNBC), KRas WT
Protocol: as §1, §2, §3

[4] = test system: HPAF-II (expressing KRas G12D mutant); assay: Proliferation Assay (Cell Viability Assay); format: cell-based; settings: Homo sapiens, pancreatic
Protocol: as §1, §2, §3

[5] = test system: HT29 (expressing wild type KRas); assay: Proliferation Assay (Cell Viability Assay); format: cell-based; settings: Homo sapiens, HT-29; HT29, colon, KRas WT
Protocol: as §1, §2, §3

[6] = test system: NCI-H1299 (expressing NRas Q61H mutant); assay: Proliferation Assay (Cell Viability Assay); format: cell-based; settings: Homo sapiens; NCI-H1299, NSCLC, Q61H (N-Ras)
Protocol: as §1, §2, §3

[7] = test system: NCI-H1975 (expressing wild type KRas); assay: Proliferation Assay (Cell Viability Assay); format: cell-based; settings: Homo sapiens; NCI-H1975, NSCLC, KRas WT
Protocol: as §1, §2, §3

[8] = test system: NCI-H441 (expressing KRas G12S mutant); assay: Proliferation Assay (Cell Viability Assay); format: cell-based; settings: Homo sapiens, NCI-H441, NSCLC
Protocol: as §1, §2, §3

[9] = test system: SU86.86 (expressing KRas G12D mutant); assay: Proliferation Assay (Cell Viability Assay); format: cell-based; settings: Homo sapiens, SU.86.86, SU86.86, pancreatic
Protocol: as §1, §2, §3

Compound: CO[C@H]1CC[C@@H](Nc2nc(-c3ccccn3)nn3cc(-c4ccn(C(C)C)n4)c(C)c23)C1 (racemic) [Compound 9, rac 6-(1-Isopropyl-1H-pyrazol-3-yl)-N-((1R,3S)-3-methoxycyclopentyl)-5-methyl-2-(pyridin-2-yl)pyrrolo[2,1-f][1,2,4]triazin-4-amine]
- % inh of MAPK p38 in Panc-1 [1]: G* (G* = 75-99% activation)

- IC50 [2]: < 150 nM
- IC50 [3]: 510 to 1000 nM
- IC50 [5]: < 150 nM
- IC50 [6]: < 150 nM
- IC50 [7]: 510 to 1000 nM
- IC50 [8]: 510 to 1000 nM
Compound: COc1cc(Nc2nc(-c3nccn3C)nn3cc(-c4ccn(C(C)C)n4)c(C)c23)ncn1 [Compound 6, 6-(1-Isopropyl-1H-pyrazol-3-yl)-N-(6-methoxypyrimidin-4-yl)-5-methyl-2-(1-methyl-1H-imidazol-2-yl)pyrrolo[2,1-f][1,2,4]triazin-4-amine]
- % inh of MAPK p38 in Panc-1 [1]: E* (E* = 1-30% activation)
- IC50 [4]: < 150 nM
- IC50 [9]: 150 to 500 nM

Compound: Cc1c(-c2ccn(C(C)C)n2)cn2nc(-c3ccccn3)nc(O)c12 [Compound 8, 6-(1-Isopropyl-1H-pyrazol-3-yl)-5-methyl-2-(pyridin-2-yl)pyrrolo[2,1-f][1,2,4]triazin-4-ol]
- % inh of MAPK p38 in Panc-1 [1]: H* (H* ≥ 100% activation)

Compound: Cc1c(-c2ccn(C(C)C)n2)cn2nc(-c3nccn3C)nc(Nc3nccn3C)c12 [Compound 93, 6-(1-Isopropyl-1H-pyrazol-3-yl)-5-methyl-N,2-bis(1-methyl-1H-imidazol-2-yl)pyrrolo[2,1-f][1,2,4]triazin-4-amine]
- % inh of MAPK p38 in Panc-1 [1]: H* (H* ≥ 100% activation)
